We go through eight compounds from patent publication US20250019377A1 (JACOBIO PHARMACEUTICALS CO., LTD, priority 2021, published 2025).

Structures are written as SMILES. Where only a bound is given, the exact number is not on record here.

Assay [1] concerns NCI-H747 cells (K-Ras G13D).
Assay [2] relates to p-ERK in MKN-1 cells (K-Ras WT amplification). In words: Phospho-ERK1/2(THR202/TYR204) HTRF assay, MKN-1. The format is cell-based. To be noted: Homo sapiens; MKN-1, K-Ras WT, 2 hours incubation. In general terms: In TR-FRET formats the signal depends on donor and acceptor labels being close together.
Assay [3] has as its system TCC-PAN2 cells (K-Ras G12R). Description: 3D cell growth inhibition assay, TCC-PAN2. The format is cell-based. To be noted: 144 h, 6 days, absolute IC50.
Assay [4] deals with p-ERK in AGS cells (K-Ras G12D). In words: Phospho-ERK1/2(THR202/TYR204) HTRF assay, AGS. The format is cell-based. To be noted: Homo sapiens, 2 h, 2 hours incubation.
Another assay has as its system AGS cells (K-Ras G12D). Description: 2D cell growth inhibition assay, AGS. The format is cell-based. To be noted: Homo sapiens, 144 h, 6 days, absolute IC50.
In assay [5] the test system is Capan-2 cells (K-Ras G12V).
The subject of assay [6] is p-ERK in NCI-H460 cells (K-Ras Q61H). Description: Phospho-ERK1/2(THR202/TYR204) HTRF assay, NCI-H460. The format is cell-based. To be noted: Homo sapiens, 2 hours incubation.
The subject of another assay is MKN-1 cells (K-Ras WT). Description: 3D cell growth inhibition assay, MKN-1. The assay is classed as cell-based. To be noted: Homo sapiens, 144 h, MKN-1, K-Ras WT, 6 days, absolute IC50.
In assay [7] the test system is p-ERK in TCC-PAN2 cells (K-Ras G12R). Description: Phospho-ERK1/2(THR202/TYR204) HTRF assay, TCC-PAN2. The format is cell-based. To be noted: 2 hours incubation.
In assay [8] the test system is AsPC-1 cells (K-Ras G12D). Description: 2D cell growth inhibition assay, AsPC-1. To be noted: Homo sapiens, ASPC1, 144 h, AsPC-1, K-Ras G12D, 6 days, absolute IC50. The format is cell-based.
For another assay, the system named is SW620 cells (K-Ras G12V). Description: 2D cell growth inhibition assay, SW620. The format is cell-based. To be noted: Homo sapiens, SW-620, 144 h, 6 days, absolute IC50.
Assay [9] concerns p-ERK in SW620 cells (K-Ras G12V). In words: Phospho-ERK1/2(THR202/TYR204) HTRF assay, SW620. The assay is classed as cell-based. To be noted: Homo sapiens, SW-620, 2 h, 2 hours incubation.
The subject of assay [10] is p-ERK in NCI-H747 cells (K-Ras G13D).
The subject of assay [11] is p-ERK in NCI-H358 cells (K-Ras G12C). Description: Phospho-ERK1/2(THR202/TYR204) HTRF assay, NCI-H358. The format is cell-based. To be noted: Homo sapiens, 2 hours incubation.
Assay [12] relates to RERF-LC-Ad1 cells (K-Ras G12A).
Assay [13] deals with NCI-H358 cells (K-Ras G12C).
The subject of assay [14] is NCI-H460 cells (K-Ras Q61H). Description: 3D cell growth inhibition assay, NCI-H460. The assay is classed as cell-based. To be noted: Homo sapiens, 144 h, 6 days, absolute IC50.

As to `C#Cc1c(F)ccc2cc(O)cc(-c3ncc4c(N5CCCO[C@@H]6C[C@@H]65)nc(OC[C@@]56CCCN5C[C@H](F)C6)nc4c3F)c12` (single isomer, unassigned) [Compound 7B], the IC50 is 0.807 nM in [1]; 1 nM in assay [2]; 41 nM in [3]; 0.255 nM in assay [4]; 0.423 nM in the assay with AGS cells (K-Ras G12D); 2.91 nM in assay [5]. Further, the IC50 in assay [6] amounted to 1.66 nM; in the assay on MKN-1 cells (K-Ras WT), 3.7 nM; in assay [7] it was 13.5 nM; in assay [8], 2.73 nM; in the assay on SW620 cells (K-Ras G12V) it was 0.858 nM; in assay [9], 1.01 nM. For the same compound, the IC50 in assay [10] worked out at 0.701 nM; in assay [11] it was 0.881 nM; in [12], 2.52 nM; in [13] it was 2.57 nM; in [14] it was 17.9 nM.
As to `C#Cc1c(F)ccc2cc(O)cc(-c3ncc4c(N5CCCOCC5)nc(OC[C@@]56CCCN5C[C@H](F)C6)nc4c3F)c12` [Compound 1, 5-ethynyl-6-fluoro-4-(8-fluoro-2-(((2R,7aS)-2-fluorotetrahydro-1H-pyrrolizin-7a(5H)-yl)methoxy)-4-(1,4-oxazepan-4-yl)pyrido[4,3-d]pyrimidin-7-yl)naphthalen-2-ol trifluoroacetic acid], the concentration for half-maximal inhibition (IC50) in assay [1] stood at 5.65 nM; in [2] it was 1.34 nM; in [3], 189 nM; in [4] it was 0.974 nM; in the assay on AGS cells (K-Ras G12D), 2.45 nM; in assay [5] it was 28.7 nM. In addition, the half-maximal inhibitory concentration (IC50) in assay [6] turned out to be 7.04 nM; in the assay on MKN-1 cells (K-Ras WT) it was 8.23 nM; in assay [7] it was 207 nM; in [8], 43.8 nM; in the assay on SW620 cells (K-Ras G12V), 4.68 nM; in [9], 2.74 nM. Besides, the IC50 was determined as 1.64 nM in assay [10], 2.2 nM in assay [11], 20.6 nM in [12] and 75.1 nM in assay [14].
Take `C#Cc1c(F)ccc2cc(O)cc(-c3ncc4c(N5CCCOC6CC65)nc(OC[C@@]56CCCN5C[C@H](F)C6)nc4c3F)c12` (stereo partly drawn) [Compound 7, 4-(4-(2-oxa-6-azabicyclo[5.1.0]octan-6-yl)-8-fluoro-2-(((2R,7aS)-2-fluorotetrahydro-1H-pyrrolizin-7a(5H)-yl)methoxy)pyrido[4,3-d]pyrimidin-7-yl)-5-ethynyl-6-fluoronaphthalen-2-ol]: the IC50 in assay [1] came to 3.17 nM; in assay [2], 3.44 nM; in assay [3] it was 165 nM; in assay [4], 0.82 nM; with AGS cells (K-Ras G12D), 0.778 nM; in assay [5], 7.34 nM. The concentration for half-maximal inhibition (IC50) in assay [6] worked out at 2.95 nM; in the assay on MKN-1 cells (K-Ras WT) it was 3.46 nM; in assay [7] it was 31 nM; in [8], 12.8 nM; in the assay on SW620 cells (K-Ras G12V) it was 1.33 nM; in assay [9], 2.21 nM. The IC50 in assay [10] turned out to be 0.919 nM; in assay [11] it was 1.67 nM; in assay [12], 5.2 nM; in assay [13], 2.32 nM; in assay [14], 39.8 nM.
On to `C#Cc1c(F)ccc2cc(O)cc(-c3ncc4c(N5CCCOCC5)nc(OC[C@@]56CCCN5C[C@H](OC)C6)nc4c3F)c12` [Compound 11, 5-ethynyl-6-fluoro-4-(8-fluoro-2-(((2R,7aS)-2-methoxytetrahydro-1H-pyrrolizin-7a(5H)-yl)methoxy)-4-(1,4-oxazepan-4-yl)pyrido[4,3-d]pyrimidin-7-yl)naphthalen-2-ol], for which the IC50 in [1] is 56 nM; in [2], 19.5 nM; in assay [3] it was more than 1000 nM; in [4], 14.9 nM; in the assay with AGS cells (K-Ras G12D), 40.6 nM; in assay [5], 311 nM. Further, the IC50 in [6] amounted to 63.8 nM; with MKN-1 cells (K-Ras WT) it was 28.1 nM; in assay [7] it was 560 nM; in assay [8], 380 nM; in the assay with SW620 cells (K-Ras G12V), 34.1 nM; in assay [9], 18.7 nM. The IC50 worked out at 17.6 nM in assay [10]; 2.53 nM in [11]; 150 nM in [12]; 62.6 nM in assay [13]; 866 nM in assay [14].
For `C#Cc1c(C)ccc2cc(O)cc(-c3ncc4c(N5CCCOCC5)nc(OC[C@@]56CCCN5C[C@H](F)C6)nc4c3F)c12` [Compound 38, 5-ethynyl-4-(8-fluoro-2-(((2R,7aS)-2-fluorotetrahydro-1H-pyrrolizin-7a(5H)-yl)methoxy)-4-(1,4-oxazepan-4-yl)pyrido[4,3-d]pyrimidin-7-yl)-6-methylnaphthalen-2-ol trifluoroacetic acid], the IC50 in assay [1] is 10.4 nM; in assay [2] it was 10.6 nM; in assay [3], not below 1000 nM; in assay [4] it was 2.16 nM; in the assay with AGS cells (K-Ras G12D), 2.73 nM; in [5], 57.8 nM. For the same compound, the concentration for half-maximal inhibition (IC50) in [6] came out at 14.9 nM; in the assay on MKN-1 cells (K-Ras WT) it was 10 nM; in assay [7], 218 nM; in assay [8], 77.3 nM; in the assay with SW620 cells (K-Ras G12V), 13.1 nM; in assay [9], 7.72 nM. Also, the IC50 turned out to be 3.17 nM in assay [10], 2.23 nM in [11], 13.6 nM in [13] and 159 nM in assay [14].
As to `C#Cc1c(F)ccc2cc(O)cc(-c3nc(NC)c4c(N5CCCOCC5)nc(OC[C@@]56CCCN5C[C@H](F)C6)nc4c3F)c12` [Compound 53, 5-ethynyl-6-fluoro-4-(8-fluoro-2-(((2R,7aS)-2-fluorotetrahydro-1H-pyrrolizin-7a(5H)-yl)methoxy)-5-(methylamino)-4-(1,4-oxazepan-4-yl)pyrido[4,3-d]pyrimidin-7-yl)naphthalen-2-ol trifluoroacetic acid], the IC50 in [1] was 34 nM; in assay [2], 9.74 nM; in assay [3], not below 1000 nM; in assay [4] it was 2.66 nM; with AGS cells (K-Ras G12D), 9.17 nM; in assay [5] it was 153 nM. The 50% inhibitory concentration (IC50) in assay [6] was 17.5 nM; with MKN-1 cells (K-Ras WT), 25.7 nM; in assay [7], 456 nM; in assay [8], 88.2 nM; in the assay on SW620 cells (K-Ras G12V), 19.4 nM; in assay [9] it was 6.18 nM. Further, the 50% inhibitory concentration (IC50) in assay [10] was determined as 6.93 nM; in assay [11], 3.86 nM; in assay [13] it was 47.2 nM; in [14], 24 nM.
In the case of `C#Cc1c(F)ccc2cc(O)cc(-c3nc(OC)c4c(N5CCCOCC5)nc(OC[C@@]56CCCN5C[C@H](F)C6)nc4c3F)c12` [Compound 65, 5-ethynyl-6-fluoro-4-(8-fluoro-2-(((2R,7aS)-2-fluorotetrahydro-1H-pyrrolizin-7a(5H)-yl)methoxy)-5-methoxy-4-(1,4-oxazepan-4-yl)pyrido[4,3-d]pyrimidin-7-yl)naphthalen-2-ol trifluoroacetic acid], the IC50 was 9.7 nM in [1]; 3.71 nM in assay [2]; 275 nM in assay [3]; 0.81 nM in assay [4]; 1.61 nM in the assay on AGS cells (K-Ras G12D); 7.15 nM in assay [5]. Also, the IC50 in [6] worked out at 7.82 nM; with MKN-1 cells (K-Ras WT), 11 nM; in [7], 74.9 nM; in assay [8], 29.2 nM; with SW620 cells (K-Ras G12V), 3.03 nM; in assay [9] it was 4.31 nM. Further, the IC50 was 2.94 nM in assay [10]; 1.24 nM in assay [11]; 25.9 nM in assay [12]; 14.8 nM in [13]; 37.2 nM in assay [14].
In the case of `C#Cc1c(F)ccc2cc(O)cc(-c3nc(OCC)c4c(N5CCCOCC5)nc(OC[C@@]56CCCN5C[C@H](F)C6)nc4c3F)c12` [Compound 66, 4-(5-ethoxy-8-fluoro-2-(((2R,7aS)-2-fluorotetrahydro-1H-pyrrolizin-7a(5H)-yl)methoxy)-4-(1,4-oxazepan-4-yl)pyrido[4,3-d]pyrimidin-7-yl)-5-ethynyl-6-fluoronaphthalen-2-ol], the IC50 in assay [1] amounted to 10.4 nM; in [2], 7.81 nM; in [3] it was 621 nM; in assay [4] it was 1.15 nM; in the assay on AGS cells (K-Ras G12D), 3.86 nM; in assay [5], 12.3 nM. Moreover, the IC50 in assay [6] came to 12.8 nM; with MKN-1 cells (K-Ras WT), 23.9 nM; in [7] it was 121 nM; in [8], 50.3 nM; in the assay on SW620 cells (K-Ras G12V), 7.33 nM; in assay [9] it was 2.74 nM. Further, the concentration for half-maximal inhibition (IC50) in assay [10] turned out to be 4.41 nM; in assay [11], 3.48 nM; in assay [12] it was 26.6 nM; in assay [13], 26 nM; in assay [14], 53.2 nM.

The IC50 is the concentration needed to halve the response being measured. Read a high IC50 as a need for much substance.
